{"source": "ChEMBL document CHEMBL3259567", "about": "“Novel 2,4-Diarylaminopyrimidine Analogues (DAAPalogues) Showing Potent c-Met/ALK Multikinase Inhibitory Activities” (ACS Med Chem Lett, 2014)", "key": {"[1]": {"target": "Hepatocyte growth factor receptor (Homo sapiens, UniProt P08581)", "sequence (P08581 whole entry)": "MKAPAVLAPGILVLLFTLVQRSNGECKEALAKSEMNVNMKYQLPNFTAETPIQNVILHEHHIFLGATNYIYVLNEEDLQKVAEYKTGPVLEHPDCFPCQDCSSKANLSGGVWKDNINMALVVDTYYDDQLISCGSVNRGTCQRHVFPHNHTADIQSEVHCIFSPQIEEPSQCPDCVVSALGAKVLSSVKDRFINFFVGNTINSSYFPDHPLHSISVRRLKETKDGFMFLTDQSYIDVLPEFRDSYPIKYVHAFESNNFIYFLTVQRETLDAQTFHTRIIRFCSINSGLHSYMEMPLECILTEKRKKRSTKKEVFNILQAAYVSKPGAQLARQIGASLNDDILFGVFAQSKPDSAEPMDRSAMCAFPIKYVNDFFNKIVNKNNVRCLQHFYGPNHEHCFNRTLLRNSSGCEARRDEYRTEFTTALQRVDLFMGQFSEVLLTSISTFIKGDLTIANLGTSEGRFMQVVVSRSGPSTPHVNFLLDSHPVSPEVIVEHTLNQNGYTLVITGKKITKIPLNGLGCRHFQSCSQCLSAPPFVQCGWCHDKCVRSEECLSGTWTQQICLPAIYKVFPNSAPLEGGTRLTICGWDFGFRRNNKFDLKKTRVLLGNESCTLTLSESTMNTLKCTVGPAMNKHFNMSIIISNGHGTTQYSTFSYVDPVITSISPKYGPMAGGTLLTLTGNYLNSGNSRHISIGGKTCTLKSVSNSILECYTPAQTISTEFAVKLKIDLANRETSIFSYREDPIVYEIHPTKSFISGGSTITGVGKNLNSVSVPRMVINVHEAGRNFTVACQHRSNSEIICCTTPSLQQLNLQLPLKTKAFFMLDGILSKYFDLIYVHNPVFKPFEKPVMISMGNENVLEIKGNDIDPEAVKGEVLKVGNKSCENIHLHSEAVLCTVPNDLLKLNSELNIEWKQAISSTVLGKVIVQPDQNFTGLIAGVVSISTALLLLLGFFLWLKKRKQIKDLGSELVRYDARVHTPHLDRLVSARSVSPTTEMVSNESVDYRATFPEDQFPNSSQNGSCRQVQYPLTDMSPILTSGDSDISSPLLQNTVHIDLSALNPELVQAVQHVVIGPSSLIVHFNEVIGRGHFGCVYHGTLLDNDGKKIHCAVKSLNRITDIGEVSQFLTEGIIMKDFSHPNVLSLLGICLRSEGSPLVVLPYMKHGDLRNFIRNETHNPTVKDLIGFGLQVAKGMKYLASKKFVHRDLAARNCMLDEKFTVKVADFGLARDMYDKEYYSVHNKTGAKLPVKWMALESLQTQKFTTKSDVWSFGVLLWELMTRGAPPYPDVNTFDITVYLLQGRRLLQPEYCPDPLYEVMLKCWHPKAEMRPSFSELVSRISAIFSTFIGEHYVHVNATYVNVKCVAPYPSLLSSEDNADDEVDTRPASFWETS"}, "[2]": {"target": "ALK tyrosine kinase receptor (Homo sapiens, UniProt Q9UM73)", "sequence (Q9UM73 whole entry)": "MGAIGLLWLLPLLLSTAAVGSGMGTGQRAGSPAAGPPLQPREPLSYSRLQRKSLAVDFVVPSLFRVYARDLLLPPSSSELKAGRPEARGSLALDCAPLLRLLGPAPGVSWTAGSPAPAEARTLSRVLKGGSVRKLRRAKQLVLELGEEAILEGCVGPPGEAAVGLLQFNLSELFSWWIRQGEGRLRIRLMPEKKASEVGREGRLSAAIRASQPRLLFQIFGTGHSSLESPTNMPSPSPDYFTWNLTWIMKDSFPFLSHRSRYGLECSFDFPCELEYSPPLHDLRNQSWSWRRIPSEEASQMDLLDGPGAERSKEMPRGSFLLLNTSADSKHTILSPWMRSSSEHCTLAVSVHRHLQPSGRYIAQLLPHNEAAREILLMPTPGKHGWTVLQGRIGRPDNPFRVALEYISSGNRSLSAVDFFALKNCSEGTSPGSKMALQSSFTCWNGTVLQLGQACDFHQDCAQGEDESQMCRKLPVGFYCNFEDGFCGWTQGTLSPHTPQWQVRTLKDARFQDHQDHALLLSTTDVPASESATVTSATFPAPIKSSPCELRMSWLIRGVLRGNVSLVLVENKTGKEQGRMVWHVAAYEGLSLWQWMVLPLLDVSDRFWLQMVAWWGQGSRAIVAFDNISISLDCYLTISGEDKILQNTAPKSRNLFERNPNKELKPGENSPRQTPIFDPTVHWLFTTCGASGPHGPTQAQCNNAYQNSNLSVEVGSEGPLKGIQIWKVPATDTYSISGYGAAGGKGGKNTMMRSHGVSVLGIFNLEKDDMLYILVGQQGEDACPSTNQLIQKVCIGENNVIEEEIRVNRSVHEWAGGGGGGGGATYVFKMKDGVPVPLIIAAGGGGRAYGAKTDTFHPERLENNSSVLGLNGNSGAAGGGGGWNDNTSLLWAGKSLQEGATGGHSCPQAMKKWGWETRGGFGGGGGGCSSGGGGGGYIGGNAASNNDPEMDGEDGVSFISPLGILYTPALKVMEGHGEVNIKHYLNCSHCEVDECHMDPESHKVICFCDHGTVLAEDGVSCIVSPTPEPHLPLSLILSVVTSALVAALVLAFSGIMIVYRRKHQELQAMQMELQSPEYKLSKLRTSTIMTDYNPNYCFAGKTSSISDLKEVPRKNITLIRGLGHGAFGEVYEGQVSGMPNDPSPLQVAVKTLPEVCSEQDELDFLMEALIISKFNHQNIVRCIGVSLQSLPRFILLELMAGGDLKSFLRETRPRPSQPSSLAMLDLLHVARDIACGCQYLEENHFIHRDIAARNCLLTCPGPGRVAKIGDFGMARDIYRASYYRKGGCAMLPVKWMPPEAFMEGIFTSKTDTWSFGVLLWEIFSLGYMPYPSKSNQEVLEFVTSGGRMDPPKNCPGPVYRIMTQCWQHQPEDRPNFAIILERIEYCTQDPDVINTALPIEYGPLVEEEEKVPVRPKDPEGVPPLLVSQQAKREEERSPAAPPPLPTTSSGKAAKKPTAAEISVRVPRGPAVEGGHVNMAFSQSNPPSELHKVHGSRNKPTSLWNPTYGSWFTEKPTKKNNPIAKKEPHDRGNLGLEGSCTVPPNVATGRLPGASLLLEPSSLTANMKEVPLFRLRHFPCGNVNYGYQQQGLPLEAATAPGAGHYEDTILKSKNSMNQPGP"}, "D(1B) dopamine receptor": {"target": "D(1B) dopamine receptor (Homo sapiens, UniProt P21918)", "sequence (P21918 whole entry)": "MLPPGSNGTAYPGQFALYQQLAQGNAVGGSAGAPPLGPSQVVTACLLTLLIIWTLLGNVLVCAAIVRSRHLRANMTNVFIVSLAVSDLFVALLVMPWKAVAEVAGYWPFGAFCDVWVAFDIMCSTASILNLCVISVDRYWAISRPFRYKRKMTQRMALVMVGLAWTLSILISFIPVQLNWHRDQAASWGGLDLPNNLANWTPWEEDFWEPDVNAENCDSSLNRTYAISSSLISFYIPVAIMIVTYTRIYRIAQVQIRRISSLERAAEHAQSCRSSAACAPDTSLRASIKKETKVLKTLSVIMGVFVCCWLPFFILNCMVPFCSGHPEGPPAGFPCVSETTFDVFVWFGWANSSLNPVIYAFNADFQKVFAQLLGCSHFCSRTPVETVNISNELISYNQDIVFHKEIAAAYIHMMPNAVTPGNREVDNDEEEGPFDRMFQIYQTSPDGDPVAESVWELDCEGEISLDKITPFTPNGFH", "test": "Antagonist activity at dopamine D5 receptor (unknown origin)"}, "D(1A) dopamine receptor": {"target": "D(1A) dopamine receptor (Homo sapiens, UniProt P21728)", "test": "Antagonist activity at dopamine D1 receptor (unknown origin)"}, "cells [3]": {"test": "cells", "details": "Homo sapiens, KARPAS-299, 72 h", "description": "Antiproliferative activity against ALK-dependent human KARPAS299 cells after 72 hrs"}, "[4]": {"test": "Clearance in mouse at 10 mg/kg, iv", "assay_type": "ADME, organism-based", "set-up": "dose 10 mg/kg, route intravenous", "details": "in vivo"}, "[5]": {"test": "Oral bioavailability in mouse at 20 mg/kg", "assay_type": "ADME, organism-based", "details": "in vivo"}, "[6]": {"target": "Macrophage-stimulating protein receptor (Homo sapiens) (UniProt Q04912)", "test": "Inhibition of purified recombinant RON (unknown origin) at 1 uM after 60 mins by ELISA"}, "[7]": {"target": "Proto-oncogene tyrosine-protein kinase receptor Ret (Homo sapiens) (UniProt P07949)", "test": "Inhibition of purified recombinant RET (unknown origin) at 1 uM after 60 mins by ELISA"}, "[8]": {"test": "AUC (0 to infinity) in mouse at 20 mg/kg, po", "assay_type": "ADME, organism-based", "set-up": "time infinity, dose 20 mg/kg, route oral", "details": "plasma"}, "[9]": {"test": "Half life in mouse at 10 mg/kg, iv", "assay_type": "ADME, organism-based", "set-up": "dose 10 mg/kg, route intravenous", "details": "in vivo"}, "[10]": {"target": "Fibroblast growth factor receptor 1 (Homo sapiens) (UniProt P11362)", "sequence (P11362 22-822 limits assumed)": "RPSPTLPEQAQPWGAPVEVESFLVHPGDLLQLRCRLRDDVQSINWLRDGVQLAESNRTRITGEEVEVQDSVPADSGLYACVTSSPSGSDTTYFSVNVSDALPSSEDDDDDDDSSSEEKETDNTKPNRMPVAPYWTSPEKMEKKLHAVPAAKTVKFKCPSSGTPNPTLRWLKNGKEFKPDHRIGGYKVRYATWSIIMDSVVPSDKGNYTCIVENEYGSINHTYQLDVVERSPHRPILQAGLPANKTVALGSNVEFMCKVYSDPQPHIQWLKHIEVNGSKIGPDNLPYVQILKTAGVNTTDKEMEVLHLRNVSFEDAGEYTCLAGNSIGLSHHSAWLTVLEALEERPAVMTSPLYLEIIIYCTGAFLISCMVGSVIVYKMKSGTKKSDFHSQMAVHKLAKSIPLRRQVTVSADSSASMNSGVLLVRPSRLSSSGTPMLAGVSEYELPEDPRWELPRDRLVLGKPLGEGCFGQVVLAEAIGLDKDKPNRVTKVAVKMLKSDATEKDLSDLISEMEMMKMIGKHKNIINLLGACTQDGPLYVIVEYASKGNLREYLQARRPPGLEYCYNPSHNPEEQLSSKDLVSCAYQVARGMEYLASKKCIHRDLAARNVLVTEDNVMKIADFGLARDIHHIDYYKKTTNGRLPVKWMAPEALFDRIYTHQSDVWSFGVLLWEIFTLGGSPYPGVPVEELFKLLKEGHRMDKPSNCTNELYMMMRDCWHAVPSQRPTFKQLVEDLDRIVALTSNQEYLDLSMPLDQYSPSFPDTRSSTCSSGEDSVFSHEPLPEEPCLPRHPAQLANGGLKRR", "test": "Inhibition of purified recombinant FGFR1 (unknown origin) at 1 uM after 60 mins by ELISA"}, "BaF3 [11]": {"tested_on": "BaF3", "test": "Antitumor activity against mouse BAF3 cells expressing EML4-ALK fusion protein allografted in nude mouse assessed as tumor growth inhibition at 0.3 to 1 mg/kg, po qd for 2 weeks relative to vehicle-treated control", "assay_type": "functional, organism-based"}, "[12]": {"target": "Proto-oncogene tyrosine-protein kinase Src (Homo sapiens) (UniProt P12931)", "sequence (P12931 2-536 limits assumed)": "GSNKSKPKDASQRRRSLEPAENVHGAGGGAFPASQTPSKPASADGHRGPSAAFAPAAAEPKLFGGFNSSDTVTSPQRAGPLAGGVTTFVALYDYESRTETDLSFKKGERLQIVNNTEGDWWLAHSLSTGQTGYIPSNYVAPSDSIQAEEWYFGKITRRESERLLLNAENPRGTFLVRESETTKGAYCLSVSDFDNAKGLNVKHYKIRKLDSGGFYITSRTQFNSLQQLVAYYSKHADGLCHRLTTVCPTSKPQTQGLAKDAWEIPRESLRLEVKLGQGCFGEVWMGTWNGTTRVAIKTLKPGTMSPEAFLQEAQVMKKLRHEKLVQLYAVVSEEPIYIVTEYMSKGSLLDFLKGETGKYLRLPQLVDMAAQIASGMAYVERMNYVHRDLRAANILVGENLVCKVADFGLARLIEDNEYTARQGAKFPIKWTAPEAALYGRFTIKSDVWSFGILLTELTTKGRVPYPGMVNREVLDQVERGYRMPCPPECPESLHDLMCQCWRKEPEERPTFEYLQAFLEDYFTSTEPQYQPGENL", "test": "Inhibition of purified recombinant c-SRC (unknown origin) at 1 uM after 60 mins by ELISA"}, "BaF3 [13]": {"tested_on": "BaF3", "test": "Antitumor activity against mouse BAF3 cells expressing EML4-ALK fusion protein allografted in nude mouse assessed as tumor growth inhibition at 1 mg/kg, po qd for 2 weeks relative to vehicle-treated control", "assay_type": "functional", "details": "BaF3, 336 h, read-out: TGI"}, "cells [14]": {"test": "cells", "details": "Homo sapiens, EBC-1, 72 h", "description": "Antiproliferative activity against cMET-amplified human EBC1 cells after 72 hrs"}}, "note": "The source made the active and inactive calls. The rule behind the calls is not given here.", "data": [{"molecule": "CNC(=O)c1ccccc1Nc1nc(Nc2ccc3c(c2)C(C)CNCC3)ncc1Cl", "note": "(centres undefined)", "values": [{"measurement": "IC50", "setting": "[1]", "result": 6.4, "unit": "nM"}, {"measurement": "IC50", "setting": "[2]", "result": 7.9, "unit": "nM"}]}, {"molecule": "CNC(=O)c1ccccc1Nc1nc(Nc2ccc3c(c2)C(C)CN(C)CC3)nc(F)c1Cl", "note": "(centres undefined)", "values": [{"measurement": "IC50", "setting": "[1]", "result": "> 1000", "unit": "nM"}, {"measurement": "IC50", "setting": "[2]", "result": "> 1000", "unit": "nM"}]}, {"molecule": "CNC(=O)c1ccccc1Nc1nc(Nc2ccc3c(c2)C(C)CN(C)CC3)nc(NC)c1Cl", "note": "(centres undefined)", "values": [{"measurement": "IC50", "setting": "[1]", "result": "> 1000", "unit": "nM"}, {"measurement": "IC50", "setting": "[2]", "result": "> 1000", "unit": "nM"}]}, {"molecule": "CNC(=O)c1ccccc1Nc1nc(Nc2ccc3c(c2)C(C)CN(C)CC3)nc(N2CCOCC2)c1Cl", "note": "(centres undefined)", "values": [{"measurement": "IC50", "setting": "[1]", "result": "> 1000", "unit": "nM"}, {"measurement": "IC50", "setting": "[2]", "result": "> 1000", "unit": "nM"}]}, {"molecule": "CNC(=O)c1ccccc1Nc1nc(Nc2ccc3c(c2)C(C)CN(C)CC3)nc2sccc12", "note": "(centres undefined)", "values": [{"measurement": "IC50", "setting": "[1]", "result": "> 1000", "unit": "nM"}, {"measurement": "IC50", "setting": "[2]", "result": "> 1000", "unit": "nM"}]}, {"molecule": "CNC(=O)c1ccccc1Nc1nc(Nc2ccc3c(c2)C(C)CN(C)CC3)nc2cccnc12", "note": "(centres undefined)", "values": [{"measurement": "IC50", "setting": "[1]", "result": "> 1000", "unit": "nM"}, {"measurement": "IC50", "setting": "[2]", "result": "> 1000", "unit": "nM"}]}, {"molecule": "CNC(=O)c1ccccc1Nc1nc(Nc2ccc3c(c2)C(C)CN(C)CC3)nc2ccccc12", "note": "(centres undefined)", "values": [{"measurement": "IC50", "setting": "[1]", "result": "> 1000", "unit": "nM"}, {"measurement": "IC50", "setting": "[2]", "result": "> 1000", "unit": "nM"}]}, {"molecule": "CC1CN(C)CCc2ccc(Nc3ncc(Cl)c(Nc4ccccc4C(=O)N4CCOCC4)n3)cc21", "note": "(centres undefined)", "values": [{"measurement": "IC50", "setting": "[1]", "result": "> 1000", "unit": "nM"}, {"measurement": "IC50", "setting": "[2]", "result": "> 1000", "unit": "nM"}]}, {"molecule": "CN1CCc2ccccc2Cc2[nH]c3ccccc3c2CC1", "values": [{"measurement": "Ki", "setting": "D(1B) dopamine receptor", "result": "< 10", "unit": "nM"}, {"measurement": "Ki", "setting": "D(1A) dopamine receptor", "result": "< 10", "unit": "nM"}]}, {"molecule": "CNC(=O)c1ccccc1Nc1nc(Nc2ccc3c(c2)C(c2ccccc2)CN(C)CC3)ncc1Cl", "note": "(racemic)", "values": [{"measurement": "IC50", "setting": "cells [3]", "result": 30, "unit": "nM"}, {"measurement": "clearance", "setting": "[4]", "result": 33.3, "unit": "mL/min/kg"}, {"measurement": "bioavailability", "setting": "[5]", "result": 73, "unit": "%"}, {"measurement": "inhibition", "setting": "[6]", "result": "Active"}, {"measurement": "inhibition", "setting": "[7]", "result": "Active"}, {"measurement": "AUC(0-inf)", "setting": "[8]", "result": 9070, "unit": "ng·h/mL"}, {"measurement": "half-life", "setting": "[9]", "result": 2.2, "unit": "h"}, {"measurement": "inhibition", "setting": "[10]", "result": "Active"}, {"measurement": "TGI", "setting": "BaF3 [11]", "result": "inactive"}, {"measurement": "inhibition", "setting": "[12]", "result": "Active"}]}, {"molecule": "CNC(=O)c1ccccc1Nc1nc(Nc2ccc3c(c2)C(C)CN(C)CC3)ncc1Cl", "note": "(racemic)", "values": [{"measurement": "IC50", "setting": "cells [3]", "result": 14, "unit": "nM"}, {"measurement": "inhibition in vivo at 1 mg/kg", "setting": "BaF3 [13]", "result": 60.6, "unit": "%"}, {"measurement": "clearance", "setting": "[4]", "result": 33.3, "unit": "mL/min/kg"}, {"measurement": "IC50", "setting": "cells [14]", "result": 7, "unit": "nM"}, {"measurement": "bioavailability", "setting": "[5]", "result": 20, "unit": "%"}, {"measurement": "inhibition", "setting": "[6]", "result": "Active"}, {"measurement": "inhibition", "setting": "[7]", "result": "Active"}, {"measurement": "AUC(0-inf)", "setting": "[8]", "result": 5500, "unit": "ng·h/mL"}, {"measurement": "half-life", "setting": "[9]", "result": 2.2, "unit": "h"}, {"measurement": "inhibition", "setting": "[10]", "result": "Active"}, {"measurement": "inhibition", "setting": "[12]", "result": "Active"}]}]}
